Measurements published in patent EP0497921B1, “METHOD FOR INHIBITING ENZYMATIC SYNTHESIS OF NUCLEIC ACIDS USING ISOPSORALENS” (ISAACS, Stephen T., priority 1989, dated 1991).

Tests used:
[1] = test system: DNA polymerase I from E. coli. B; details: Piette and Hearst 1983; nick-translating a double-stranded template; cited from earlier work
calf thymus DNA = experiment: Binding of photoproduct to nucleic acid in the dark (DNA-associated tritium counts); details: no device, no irradiation
Procedure: The nucleic acid binding properties of photoproduct were investigated with calf thymus DNA. 200 µg/ml of ^3H-AMDMIP (1 x 10^5 CPM/ml) in Taq buffer was irradiated at room temperature with either the CE-III device or the PTI device. This irradiation was performed for 15 minutes in the absence of nucleic acid. Following the irradiations, 200 µl of the irradiated solution was mixed with 200 µl of 1000 µg/ml DNA solution in Taq buffer. Several identical samples were prepared in this manner. one set of samples was allowed to react with the DNA for 2 hours at room temperature. The other set of samples was subjected to 30 cycles of heating and cooling by placing the samples in a thermal cycler [Perkin-Elmer Cetus DNA Thermal Cycler (Part No. N8010150); each cycle involved 93°C for 30 seconds, 55°C for 30 seconds and 72°C for 1 minute]. When the DNA reactions were complete, all samples were analyzed for DNA-associated tritium counts (CPM) by following the flow chart outlined in FIgure 17.
For calculation purposes, these adducts are reported as if they represented monomers of AMDMIP. Regardless of the accuracy of this approximation, the process of irradiating ^3H-AMDMIP clearly results in a tritiated product which associates (i.e. binds) with DNA in the absence of subsequent activating wavelengths of electromagnetic radiation. […]

115-mer = experiment: Crosslinkable Oligonucleotide Probe Analysis (COP) of sterilized PCR product; type: biochemical, HIV
Text: Because of this, these isopsoralen-modified single strands should remain detectable by hybridization procedures. […] Preparation of Samples: The HIV 115-mer system with primers SK-38/SK-39 was used for the experiment (see Figure 36, "HIV Oligonucleotide System"). Two types of starting template were used: previously amplified 115-mer or genomic DNA, isolated from an individual known to be infected with HIV (MACS sample). For previously amplified 115-mer between 10^5 and 10^6 copies were used for starting template. For the genomic (MACS) sample, approximately 1 µg (3 x 10^5 copies) of genomic DNA were used. Two PCR samples were prepared for each type of template then amplification was carried out for either 20 or 30 cycles. One of the two PCR samples contained AMDMIP at 200 µg/ml while the other was AMDMIP free. Following amplification, the AMDMIP containing samples were divided and half were irradiated. Analysis (OH or COP) was then done on the three samples from each set (AMDMIP free, AMDMIP unirradiated, and AMDMIP irradiated) for each cycle number. The AMDMIP free samples served as control, the AMDMIP unirradiated sampes adressed the effect of non-covalently bound AMDMIP on detection, and AMDMIP irradiated samples addressed the effect of covalently bound AMDMIP on detection.
COP and OH assays were performed a follows. 10 µl of the PCR reaction mixture was added to 3.3 µl of "probe mix" [5'-labelled SK-19 (normal or monoadducted) at 10^-8 M containing EDTA and an appropriate salt mixture], overlaid with 30-40 µl of light mineral oil, then heated to 95-100°C for 5 minutes. For COP, the hybridization mixture as placed in the PTI device at 56°C and irradiated for 15 minutes. Following this, loading dyes (containing urea or formamide) were added, the sample heated to 95-100°C for 5 minutes, quick chilled on wet ice, then loaded on a denaturing PAGE gel followed by electrophoresis under denaturing conditions. For OH reactions, the hybridization mixture was incubated at 56°C for 30 minutes, loading dyes added, and aliquots loaded directly into a native PAGE gel followed by electrophoresis under native conditions. 1. Samples 1-6 contain previously amplified 115-mer that was re-amplified either 20 (samples 1,3,5) or 30 (Samples 2,4,6) cycles then detected by COP. Samples 1 & 2 are controls (without AMDMIP); samples 3 and 4 are (with AMDMIP and with light) sterilized samples; samples 5 & 6 are (with AMDMIP but without light) controls. The bands corresponding to amplified 115-mer crosslinked to labelled 41-mer probe (SK-19 MA) are the upper bands in Figure 46. Samples 11-16 are the same series except the MACS sample was used as template.

[2] = test system: Molt-4 human genomic DNA target; experiment: Sterilization of genomic target before PCR (174 bp beta globin product); type: biochemical
Procedure: Four samples containing 1 µg of Molt-4 human genomic DNA target were prepared for PCR with primers KM 29 (5'-[…]) and HRI-12 (5'-[…]). These primers give a 174 bp product within the human beta globin gene. All four samples contained AMDMIP at 100 µg/ml, and were irradiated for 0, 5, 10 or 15 minutes prior to PCR amplification. […] Amplification were carried out in 1 x Taq buffer (50 mM KCl, 10 mM Tris pH 8.5, 2.5 mM MgCl2, 200 µg/ml gelatin), 175 µM each dNTP, 20 µM primer with 2.5 units of Taq polymerase and 100 µg/ml AMDMIP present during amplification. PCR was carried out for 30 cycles; one cycle = 30 sec at 94°C (denaturing), 30 sec at 55°C (primer annealing), and 60 sec at 72°C (extension). α-^32P-dCTP was used as an internal label. After amplification, the samples were analyzed for product by PAGE followed by autoradiaography.

DNA = DNA base pair:isopsoralen ratio of 24.3 to 1; 13.1 µg/ml; cited from earlier work
[3] = Sample 4: previously amplified 115-mer, 30 cycles, with AMDMIP and with light
[4] = Sample 5: previously amplified 115-mer, 20 cycles, with AMDMIP but without light
[5] = Sample 6: previously amplified 115-mer, 30 cycles, with AMDMIP but without light
[6] = Sample 13: MACS genomic template, 20 cycles, with AMDMIP and with light
[7] = Sample 14: MACS genomic template, 30 cycles, with AMDMIP and with light
[8] = Sample 15: MACS genomic template, 20 cycles, with AMDMIP but without light
[9] = Sample 16: MACS genomic template, 30 cycles, with AMDMIP but without light

In the case of Cc1cc2occc2c2oc(=O)ccc12 [MIP, 5-Methylisopsoralen], the “inhibition of E. Coli polymerase I by covalently bound monoadducts” value [1] is given as “not inhibited”.
For “4'-Aminomethyl-4,5'-dimethylisopsoralen [AMDMIP]”, the “ADDUCTS PER” value (calf thymus DNA; dark reaction Room Temp. (2 hours)) was 1.1, the “ADDUCTS PER” value (calf thymus DNA; dark reaction Thermally Cycled (30 cycles)) was 0.9 and the CPM (115-mer; Sample 3: previously amplified 115-mer, 20 cycles, with AMDMIP (200 µg/ml) and with light) was 1944 CPM. The “CPM (%) relative to sample without AMDMIP” value (115-mer; Sample 3: previously amplified 115-mer, 20 cycles, with AMDMIP and with light) was 62%, the CPM (115-mer; [3]) was 36452 CPM and the “CPM (%) relative to sample without AMDMIP” value (115-mer; [3]) was 83%. For the same compound, the CPM (115-mer; [4]) was 4480 CPM, the “CPM (%) relative to sample without AMDMIP” value (115-mer; [4]) was 144% and the CPM (115-mer; [5]) was 39596 CPM. For the same compound, the “CPM (%) relative to sample without AMDMIP” value (115-mer; [5]) was 90%, the CPM (115-mer; [6]) was 460 CPM and the “CPM (%) relative to sample without AMDMIP” value (115-mer; [6]) was 52%. For the same compound, the CPM (115-mer; [7]) was 41777 CPM, the “CPM (%) relative to sample without AMDMIP” value (115-mer; [7]) was 78% and the CPM (115-mer; [8]) was 464 CPM. For the same compound, the “CPM (%) relative to sample without AMDMIP” value (115-mer; [8]) was 53%, the CPM (115-mer; [9]) was 35176 CPM and the “CPM (%) relative to sample without AMDMIP” value (115-mer; [9]) was 66%. For the same compound, the “impact of unirradiated AMDMIP on amplification” value ([2]; 100 µg/ml, data not shown) was “no significant impact on amplification”, the “amplification after irradiation in the presence of AMDMIP” value ([2]; AMDMIP 100 µg/ml, irradiated 0, 5, 10 or 15 minutes prior to PCR, 30 cycles) was “no amplification of the sterilized genomic target” and the “1 photobound AMDMIP per n DNA base pairs” value (DNA) was 151 DNA base pairs.
